Like-named read-outs stand apart in the source and are kept apart here.
Assays:
[1] = target: T1, AR protein (Homo sapiens, UniProt P10275); assay: Western blotting analysis of AR protein levels in VCaP cells, band quantification, DC50/DC90; format: cell-based
T1 construct: endogenous in cells; host or cells: VCaP
T1 sequence (P10275 1-920): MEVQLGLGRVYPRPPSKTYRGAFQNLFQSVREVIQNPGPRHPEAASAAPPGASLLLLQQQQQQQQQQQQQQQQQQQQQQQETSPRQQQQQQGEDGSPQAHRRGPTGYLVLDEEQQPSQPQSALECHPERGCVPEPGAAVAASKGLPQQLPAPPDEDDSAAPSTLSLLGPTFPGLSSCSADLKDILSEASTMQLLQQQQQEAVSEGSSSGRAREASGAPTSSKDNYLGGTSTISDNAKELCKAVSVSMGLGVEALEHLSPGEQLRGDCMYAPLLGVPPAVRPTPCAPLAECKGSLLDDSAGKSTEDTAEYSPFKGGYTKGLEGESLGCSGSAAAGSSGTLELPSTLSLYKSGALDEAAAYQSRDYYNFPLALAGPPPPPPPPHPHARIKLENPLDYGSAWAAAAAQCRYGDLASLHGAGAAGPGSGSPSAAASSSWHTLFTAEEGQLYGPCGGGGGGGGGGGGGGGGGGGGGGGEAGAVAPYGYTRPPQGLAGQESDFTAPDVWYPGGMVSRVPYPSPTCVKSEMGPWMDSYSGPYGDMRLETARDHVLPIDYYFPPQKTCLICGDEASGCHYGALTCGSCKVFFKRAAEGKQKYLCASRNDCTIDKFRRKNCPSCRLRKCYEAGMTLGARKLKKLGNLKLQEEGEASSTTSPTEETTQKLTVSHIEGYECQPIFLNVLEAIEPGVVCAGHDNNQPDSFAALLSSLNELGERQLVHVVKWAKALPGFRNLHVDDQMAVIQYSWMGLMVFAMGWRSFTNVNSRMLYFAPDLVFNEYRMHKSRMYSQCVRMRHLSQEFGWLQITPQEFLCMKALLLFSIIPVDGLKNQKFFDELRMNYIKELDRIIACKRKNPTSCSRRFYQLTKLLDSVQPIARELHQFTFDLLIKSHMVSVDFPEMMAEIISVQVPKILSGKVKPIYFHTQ
Method in brief: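 VCaP cells treated with compounds, lysed in RIPA and probed for AR by Western blot with GAPDH loading control. Band intensities normalised to GAPDH; DC50 from curve fit, DC90 calculated from DC50 and Hill slope via four-parameter equation.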

[2] = Mouse PK studies after oral and IV dosing; format: in vivo; details: for F: PO 3 mg/kg vs IV 1 mg/kg; for AUC(0-t) / clearance / half-life / Vd / Cmax / Tmax: in vivo; for clearance: read-out: IV Cl (converted); for Vd: read-out: IV VSS
Method: The pharmacokinetics of representative Compounds of the Disclosure were determined after oral and IV dosing at the concentrations indicated in mouse (Table 7). […] The vehicles used in these studies are either (i) 10% PEG400+90% PBS (adjusted to pH to 8.0 by 0.5 N NaOH); or (ii) 100% PEG200.

[3] = iv, 1 mg/kg, IV, dose 1 mg/kg, read-out: IV AUC(0 − t)
[4] = iv, 1 mg/kg, IV, dose 1 mg/kg, read-out: IV T1/2 (converted)
[5] = po, 3 mg/kg, PO, dose 3 mg/kg, read-out: PO AUC(0 − t)
[6] = po, 3 mg/kg, PO, dose 3 mg/kg, read-out: PO T1/2 (converted)
[7] = VCaP cells, Table 6; read-out: VCaP DC50

Row | Compound | DC50 ([1]; read-out: VCaP DC50; VCaP cells, Table 6) | F [2] | AUC(0-t) [2, 3] | clearance ([2]; iv, 1 mg/kg, IV, dose 1 mg/kg) | half-life [2, 4] | Vd ([2]; iv, 1 mg/kg, IV, dose 1 mg/kg) | Cmax ([2]; po, 3 mg/kg) | Tmax ([2]; po, 3 mg/kg) | AUC(0-t) [2, 5] | half-life [2, 6] | DC50 [1, 7]
1 | C[C@H]1CC2(CCN(c3ccc(C(=O)N4CCN(C5CN(c6ccc7c(c6)C(=O)N(C6CCC(=O)NC6=O)C7=O)C5)CC4)cc3F)CC2)CN1c1ccc(C#N)c(Cl)c1 (stereo partly drawn) [Cpd. No. 510, 2-chloro-4-((3S)-8-(4-(4-(1-(2-(2,6-dioxopiperidin-3-yl)-1,3-dioxoisoindolin-5-yl)azetidin-3-yl)piperazine-1-carbonyl)-2-fluorophenyl)-3-methyl-2,8-diazaspiro[4.5]decan-2-yl)benzonitrile] | < 1 nM | 51% | 4080 ng·h/mL | 3.33 mL/min/kg | 8.3 h | 2.1 L/kg | 518 ng/mL | 2.7 h | 6270 ng·h/mL | 7.2 h | 
2 | C[C@H]1CC2(CCN(c3ccc(C(=O)N4CCN(CC5CN(c6cc7c(cc6F)C(=O)N(C6CCC(=O)NC6=O)C7=O)C5)CC4)cc3)CC2)CN1c1ccc(C#N)c(Cl)c1 (stereo partly drawn) [Cpd. No. 502, 2-chloro-4-((3S)-8-(4-(4-((1-(2-(2,6-dioxopiperidin-3-yl)-6-fluoro-1,3-dioxoisoindolin-5-yl)azetidin-3-yl)methyl)piperazine-1-carbonyl)phenyl)-3-methyl-2,8-diazaspiro[4.5]decan-2-yl)benzonitrile] |  | 32% | 3490 ng·h/mL | 3.33 mL/min/kg | 10 h | 3 L/kg | 289 ng/mL | 3.3 h | 3390 ng·h/mL | 9.5 h | < 1 nM
3 | C[C@H]1CC2(CCN(c3ccc(C(=O)N4CCC(N5CCN(c6ccc7c(c6)C(=O)N(C6CCC(=O)NC6=O)C7=O)CC5)CC4)cc3F)CC2)CN1c1ccc(C#N)c(Cl)c1 (stereo partly drawn) [Cpd. No. 511, 2-chloro-4-((3S)-8-(4-(4-(4-(2-(2,6-dioxopiperidin-3-yl)-1,3-dioxoisoindolin-5-yl)piperazin-1-yl)piperidine-1-carbonyl)-2-fluorophenyl)-3-methyl-2,8-diazaspiro[4.5]decan-2-yl)benzonitrile] |  | 28% | 9040 ng·h/mL | 1.67 mL/min/kg | 8 h | 0.9 L/kg | 668 ng/mL | 2.7 h | 7520 ng·h/mL | 6.4 h | < 1 nM
4 | C[C@H]1CC2(CCN(c3cnc(C(=O)N4CCC(CN5CCN(c6cc7c(cc6F)C(=O)N(C6CCC(=O)NC6=O)C7=O)CC5)CC4)cn3)CC2)CN1c1ccc(C#N)c(Cl)c1 (stereo partly drawn) [Cpd. No. 493, 2-chloro-4-((3S)-8-(5-(4-((4-(2-(2,6-dioxopiperidin-3-yl)-6-fluoro-1,3-dioxoisoindolin-5-yl)piperazin-1-yl)methyl)piperidine-1-carbonyl)pyrazin-2-yl)-3-methyl-2,8-diazaspiro[4.5]decan-2-yl)benzonitrile] |  | 25% | 840 ng·h/mL | 20.3 mL/min/kg | 4.9 h | 4.12 L/kg | 224 ng/mL | 0.7 h | 627 ng·h/mL | 4.8 h | 1 to 10 nM
5 | C[C@H]1CC2(CCN(c3ccc(C(=O)N4CCN(CC5CN(c6ccc7c(c6)C(=O)N(C6CCC(=O)NC6=O)C7=O)C5)CC4)c(F)c3)CC2)CN1c1ccc(C#N)c(Cl)c1 (stereo partly drawn) [Cpd. No. 529, 2-chloro-4-((3S)-8-(4-(4-((1-(2-(2,6-dioxopiperidin-3-yl)-1,3-dioxoisoindolin-5-yl)azetidin-3-yl)methyl)piperazine-1-carbonyl)-3-fluorophenyl)-3-methyl-2,8-diazaspiro[4.5]decan-2-yl)benzonitrile] |  | 45% | 5130 ng·h/mL | 3.33 mL/min/kg | 10.2 h | 2.2 L/kg | 507 ng/mL | 3.3 h | 6920 ng·h/mL | 8.5 h | 1 to 10 nM
